What was measured:
BACE1 = test: Western blot assessment of BACE1 levels in H4 cell lysates; type: cell-based, human; conditions: H4 cells, 10 μM, 48 hours
Procedure: (§1) Western blotting was performed on a 4-12% Bis-Tris SDS-PAGE system (NuPAGE; Invitrogen, Carlsbad, Calif., USA) as described previously (Costantini et al., 2006; Jonas et al., 2008; Jonas et al., 2010; Ko and Puglielli, 2007; Ko and Puglielli, 2009; Pehar et al., 2010). The following antibodies were used in this study: anti-acetylated lysine (monoclonal; cat. no. ab409; Abcam, Cambridge, Mass., USA); anti-BACE1 (polyclonal; cat. no. ab2077; Abcam); anti-Myc (monoclonal; cat. no. sc-40; santa cruz, Santa Cruz, Calif., USA); anti-ATases/NAT8 (polyclonal; cat. no. AP4957c; Abgent, San Diego, Calif., USA); anti-actin (monoclonal; cat. no. A1978; Sigma, St Louis, Mo., USA); anti-C99 (monoclonal; cat. no. M066-3; MBL, Woburn, Mass., USA); anti-acetylated H3 (polyclonal; cat. no. 06-599, Millipore, Billerica, Mass.); anti-acetylated H4 (polyclonal; cat. no. 06-866, Millipore, Billerica, Mass.); anti-αPCNA (polyclonal; cat. no. AP2835b, Abgent, San Diego, Calif., USA).
Samples were imaged with classical chemiluminescence and with the LiCor Odyssey Infrared Imaging System (LI-COR Biosciences, Lincoln, Nebr., USA). For chemiluminescent detection, HRP-conjugated anti-mouse or anti-rabbit secondary antibodies were used at 1:6000 dilution in 3% BSA/TBST (GE Healthcare). Detection was performed with either Lumiglo (KPL) or ECL Plus (GE Healthcare). For infrared imaging, goat anti-rabbit Alexa Fluor 680-conjugated secondary antibodies were used.
To assess their biological effects, we treated human neuroglioma (H4) cells with 10 μM of both compounds. […] This might reflect different kinetics of inhibition as well as different IC50s (see FIG. 2). Alternatively, it might also be explained by different cell-permeability properties. In fact, the cLog P for compound 9 and 19 is 5.03 and 3.19, respectively. The cLog P (or partition coefficient) is an indication of partition properties of a compound between hydrophobic and hydrophilic compartments. Higher values indicate preferential distribution in hydrophobic environments and, as such, increased permeability across biological membranes.

Aβ = test: ELISA determination of secreted Aβ in conditioned media of H4 cells; type: cell-based, human; conditions: 10 μM, 48 hours
Procedure: For Aβ determinations in the conditioned media, H4 cells were plated in 6-well Petri dishes. When 80-90% confluent, cells were washed in PBS and incubated in 1 ml of fresh medium for 48 hr. Secreted Aβ was determined by standard sandwich ELISA as described before (Costantini et al., 2007; Costantini et al., 2006; Jonas et al., 2008; Jonas et al., 2010; Ko and Puglielli, 2009; Pehar et al., 2010). For each sample, the levels of Aβ40, Aβ42, and Aβtotal were quantified as triplicate based upon standard curves run (on every ELISA plate) and then expressed as pmol Aβ/mg of protein. Aβ42 was constantly found to be ˜25% of total Aβ values.

ATase1 and ATase2 [1] = test: In vitro acetyltransferase assay, structure-activity of derivatives of compound 9 and 19 (Tables 3, 4); type: biochemical, human; conditions: refers to Table 3 / Table 4
Procedure: (§2) The acetyl:CoA lysine acetyltransferase activity of ATase1 and ATase2 was assayed as described before (Ko and Puglielli, 2009). Briefly, we adapted a commercially available fluorescent kit (cat. no. 10006515, Cayman Chemicals) as follows: as source of the enzymatic activity, we used affinity purified ATase1-myc and ATase2-myc at the final concentration of 300 ng/μl; as donor of the acetyl group, we used acetyl-CoA at the final concentration of 12.5 μM. […] The acetyltransferase assay was performed as recommended by the manufacturer.
(§3) We previously described a fluorescent assay that is able to assess the acetylCoA:lysine acetyltransferase activity of ATase1 and ATase2 in vitro (Ko and Puglielli, 2009). The assay employs affinity purified ATase1 or ATase2 (as enzymes), acetyl-CoA (as donor of the acetyl group) and a recombinant peptide corresponding to the N-terminal tail of the histone protein H3 (as acceptor of the acetyl group). The H3 peptide was preferred to affinity purified BACE1 because it is acetylated in a conformation independent manner ((Ko and Puglielli, 2009) and data not shown) and, therefore, more suitable for large screening approaches. To identify possible ATase1 and ATase2 inhibitors we used the assay to screen a single library of 14,400 small molecules/compounds. The screen identified 186 small molecules/compounds able to inhibit ATase1, ATase2 or both in vitro. […] Each compound was then screened for cytotoxic properties by using multi-plex cytotoxicity assays on a variety of cell lines, including human neuroblastoma and human neuroglioma. […] The above 30 compounds were individually screened on human neuroglioma (H4) cells for their ability to reduce the levels of BACE1 and the generation of Aβ. Two compounds, 9 and 19, produced significant changes and were object of further study.
Next we decided to analyze structure-activity properties of both compounds. In the case of compound 9, we designed 13 different chemical derivatives and assessed IC50s in vitro.

ATase1 and ATase2 [2] = test: Western blot assessment of endogenous ATase1/ATase2 levels in H4 cells; type: cell-based, human; conditions: 10 μM, 48 hours
Procedure: FIG. 4. Compound 9 causes degradation of the ATases. (A) H4 cells were treated with the indicated compounds (10 μM) for 48 hours prior to Western blot assessment of BACE1 and ATase1/ATase2 levels in total cell lysates. (B, D and E) Quantification of changes are expressed as percent of control (no treatment) and are the average (n=3)±S.D.*, P<0.05; **, P<0.005; ^#, P<0.0005. (C) ELISA determination of secreted Aβ in the conditioned media of the experiment described in (A). Results are expressed as percent of control (no treatment) and are the average (n=3)±S.D.*, P<0.05; **, P<0.005. (F) CHO cells over-expressing either ATase1 or ATase2 were treated with compound 9 (10 μM) for 48 hours prior to Western blot assessment of ATase1 and ATase2 levels in total cell lysates.
FIG. 13. Compound 9 decreases the levels of both ATase1 and ATase2. (A) H4 cells were treated with the increasing concentrations of compound 9 for 48 hours prior to Western blot assessment of BACE1 and ATase1/ATase2 levels in total cell lysates. (B-D) Quantification of changes are expressed as percent of control (no treatment) and are the average (n=3)±S.D.*, P<0.05; **, P<0.005; ^#, P<0.0005.
as §1, with “AP2835b, Abgent, San Diego, Calif., USA).” left out

ATase1 = target: T1, ATase1 (Homo sapiens, UniProt Q9UHF3); test: AcetylCoA:lysine acetyltransferase assay (fluorescent, affinity purified ATase1-myc); type: biochemical
T1 construct: myc (C); made in house
T1 sequence (Q9UHF3 1-227): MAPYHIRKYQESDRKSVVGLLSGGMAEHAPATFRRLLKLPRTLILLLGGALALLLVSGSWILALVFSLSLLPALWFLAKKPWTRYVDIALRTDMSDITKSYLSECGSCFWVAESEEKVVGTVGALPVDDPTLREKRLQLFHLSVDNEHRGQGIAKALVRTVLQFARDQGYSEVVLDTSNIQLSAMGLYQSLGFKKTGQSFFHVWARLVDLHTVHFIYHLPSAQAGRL
Procedure: as §2
(§4) For kinetic analysis of ATase1 and ATase2 inhibition, the assays were performed in the presence of the indicated concentrations of compound 9, 19 and 9.I. The concentration of acetyl-CoA was varied from […]. Values were plotted as a Lineweaver-Burk plot using Graphpad Prism software.
as §3

ATase2 = target: T2, ATase2 (Homo sapiens, UniProt Q9UHE5); test: AcetylCoA:lysine acetyltransferase assay (fluorescent, affinity purified ATase2-myc); type: biochemical
T2 construct: myc (C); made in house
T2 sequence (Q9UHE5 1-227): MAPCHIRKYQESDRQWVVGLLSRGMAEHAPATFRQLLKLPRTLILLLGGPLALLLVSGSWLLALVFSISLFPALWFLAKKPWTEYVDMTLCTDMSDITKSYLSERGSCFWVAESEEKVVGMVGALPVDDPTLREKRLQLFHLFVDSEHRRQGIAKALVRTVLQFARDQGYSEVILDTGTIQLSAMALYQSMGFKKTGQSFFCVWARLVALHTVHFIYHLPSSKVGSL
Procedure: as §2, §4, §3

C99 = test: Western blot assessment of C99 levels in H4 cell lysates; type: cell-based, human; conditions: H4 cells, 48 hours
Procedure: FIG. 7. Compound 9 and 19 decrease levels and activity of BACE1. H4 cells were treated with either compound 9 or 19 for 48 hours prior to Western blot assessment of BACE1 and C99 levels in cell lysates. C99 is the immediate product of BACE1-mediated cleavage of APP.
as §1

[3] = tested on: cytosolic and nuclear proteins, histone proteins H3 and H4; test: Lysine acetylation profile of cytosolic and nuclear proteins in H4 cells; type: cell-based, human; conditions: 48 hours
Procedure: FIG. 8. […] (A and B) H4 cells were treated with either compound 9 or 19 for 48 hours prior to Western blot assessment of the acetylation profile of cytosolic (A) and nuclear (B) proteins. (C) The nuclear fraction used in (B) was also used to assess the lysine acetylation profile of the histone proteins H3 and H4.
as §1
Cytosolic and nuclear extracts were prepared as described before (Ko and Puglielli, 2007). For cytosolic extracts, cells were homogenized in homogenization buffer containing 25 mM Tris-HCl, pH 7.4, 0.5 mM EDTA, 0.5 mM EGTA, and a protease inhibitor mixture. The homogenates were centrifuged at 14,000×g for 15 min, and supernatants were collected as cytosolic proteins.
For nuclear extracts cells were scraped into ice-cold phosphate-buffered saline and collected by centrifugation. The cell pellets were suspended in 3 volumes of lysis buffer (20 mM Hepes, pH 7.9, 10 mM KCl, 1 mM EDTA, pH 8.0, 0.2% Nonidet P-40, 10% glycerol, and a protease inhibitor mixture) followed by incubation on ice for 10 min. Cell suspensions were gently pipetted up and down; the lysates were then centrifuged at 14,000×g for 5 min at 4° C. to obtain nuclear pellets. Nuclear pellets were washed twice with cell lysis buffer (lacking Nonidet P-40 and protease inhibitor mixture) and then resuspended in 2 volumes of nuclear extract buffer (20 mM Hepes, pH 7.9, 10 mM KCl, 1 mM EDTA, pH 8.0, 420 mM NaCl, 20% glycerol, and a protease inhibitor mixture). The nuclei were extracted by incubation at 4° C. for 30 min with gentle agitation followed by centrifugation at 14,000×g at 4° C. for 5 min; the resultant supernatant fraction was used as a nuclear extract.

[4] = tested on: histone acetyltransferase p300/CBP; test: In vitro activity of histone acetyltransferase p300/CBP; type: biochemical; conditions: data not shown
[5] = Lineweaver-Burk plot, acetyl-CoA varied

inhibitory activity of derivative relative to parent compound (in words) (ATase1 and ATase2 [1])	Compound	levels of BACE1 (BACE1)	levels of Aβ in the conditioned media / generation of Aβ (Aβ)	further results
–	N=c1c(Cl)c2oc3cc(N)ccc3nc-2c2ccccc12 [Compound 9.A]	only 9.I retained significant ability	only 9.I retained significant ability	–
–	CCN(CC)c1ccc2nc3c4ccccc4c(=O)cc-3oc2c1 [Compound 9.B]	only 9.I retained significant ability	only 9.I retained significant ability	–
highest activity	Oc1c(Cl)c2nc3ccccc3nc2c2ccccc12 [Compound 9.C]	only 9.I retained significant ability	only 9.I retained significant ability	–
decreased activity	O=C1C(Cl)=C2Nc3ccccc3OC2(O)c2ccccc21 (stereo not drawn) [Compound 9.E]	only 9.I retained significant ability	only 9.I retained significant ability	–
retained inhibitory properties	O=c1ccc2nc3ccc(O)cc3oc-2c1 [Compound 9.I]	retained significant ability	retained significant ability	endogenous levels of ATase1 and ATase2 (ATase1 and ATase2 [2]): significantly down-regulate
–	CCOc1ccccc1NC1=C(Cl)C(=O)c2ccccc2C1=O [Compound 19]	significant reduction	decreased levels of Aβ	IC50 (ATase1): ~13.3 µM; kinetics of inhibition for acetyl-CoA, ATase1 (ATase1; [5]): non-competitive inhibition; IC50 (ATase2): 18.2 µM; kinetics of inhibition for acetyl-CoA, ATase2 (ATase2; [5]): non-competitive inhibition; cellular levels of C99 (C99): decreased cellular levels of C99; acetylation profile of cytosolic and nuclear proteins [3]: Neither compound 9 nor compound 19 produced significant changes; acetylation profile of the histone protein H3 and H4 ([3]; nuclear fraction): slight reduction; inhibition of in vitro activity of p300/CBP [4]: neither compound inhibited
